Measurements as given in patent US20050031598A1, “Engineering three-dimensional tissue structures using differentiating embryonic stem cells” (priority 2002, published 2005).

Legend:
Format in all cases: cell-based, human
[1] = test system: differentiating hES cells (EB day 8); test: Histochemical and immunohistochemical staining of hES cell constructs on PLLA/PLGA scaffolds; settings: scaffold constructs, two weeks; for alpha feto protein (AFP) and albumin staining: in comparison to the control
Procedure: (§1) For seeding in matrigel, 8-9 days-old EBs were trypsinized, and 0.8×10^6 cells were mixed in 25 μL of a 50% (vol/vol) media and matrigel (growth factor-reduced, BD Biosciences, Bedford, Mass.). EB media was supplemented with the following growth factors: TGF-β1 (2 ng/mL), activin-A (20 ng/mL), and IGF-I (10 ng/mL), (R&D Systems, Minneapolis, Minn.), and RA (300 ng/ml) (Sigma). The mixture was solidified in a 6-well Petri dish at 37° C. and then detached from the dish with sterile blades. 4 mL of each respective EB media was added. For seeding on scaffolds, 0.8×10^6 cells were seeded into each scaffold using 25 μL of a mixture containing 50% (vol/vol) of Growth Factor-Reduced Matrigel and the respective EB media. After seeding the cells, scaffolds were suspended in 6-well petri dishes in their respective media. For some experiments, scaffolds were soaked in 50 μg/mL of fibronectin (Sigma) for 1 hour and washed in PBS prior to direct cell seeding (without matrigel) in 25 μL of EB media.
(§2) Tissue constructs were fixed for 6 hours in 10% neutral buffered formalin, routinely processed, and embedded in paraffin. 5-μm thick transverse sections were placed on silanized slides for immunohistochemistry or staining with hematoxylin and eosin (H & E), trichrome, or Safranin O. Immunohistochemical staining was carried out using the Biocare Medical Universal HRP-DAB kit (Biocare Medical, Walnut Creek, Calif.) according to the manufacturer's instructions, with prior heat-treatment at 90° C. for 20 minutes in ReVeal buffer (Biocare Medical) for epitope recovery. The primary antibodies were mouse anti-human: desmin (1:150), alpha feto protein (1:2500), cytokeratin 7 (1:25), CD31 (1:20), albumin (1:100), vimentin (1:50), S100 (1:100) (all from Dako), anti-human βIII-tubulin (Sigma, 1:500), nestin (Transduction Laboratories, San Diego, Calif., 1:1000), CD34 (Labvision, Fremont, Calif., 1:20), SSEA4 (Hybridoma Bank, University of Iowa, Ames, 1:4), and Tra 1-60 (a gift from Peter Andrews, University of Sheffield, Sheffield, U.K., 1:10). Human and mouse tissues (Daks) were used as controls to ensure antibody specificity (FIG. 1). For proliferation studies, culture medium was incubated with […] of 5′-bromo-2′-deoxyuridine (BrdUrd) (Sigma) for 3 hours before fixation. Tissue sections were stained using mouse anti-BrdUrd antibodies (1:1000).

[2] = test system: differentiating hES cells (EBs day 8); test: Differentiation of hES cells in matrigel alone; settings: for shape of cell-matrigel structure: two weeks in suspension
Procedure: as §1, §2

[3] = test system: differentiating hES cells (EB day 8); test: Lumen diameters of tubulocystic structures lined by cytokeratin-positive epithelium in hES cell-scaffold constructs; settings: scaffold constructs grown two weeks, IGF-I 10 ng/mL, mean ±SD; for percentage of lumens >40 μm of total number of lumens (tubulocystic structures): RA 300 ng/ml, control 65%±4
Procedure: as §1
(§3) Tissue constructs were fixed for 6 hours in 10% neutral buffered formalin, routinely processed, and embedded in paraffin. 5-μm thick transverse sections were placed on silanized slides for immunohistochemistry or staining with hematoxylin and eosin (H & E), trichrome, or Safranin O. Immunohistochemical staining was carried out using the Biocare Medical Universal HRP-DAB kit (Biocare Medical, Walnut Creek, Calif.) according to the manufacturer's instructions, with prior heat-treatment at 90° C. for 20 minutes in ReVeal buffer (Biocare Medical) for epitope recovery. […]
Constructs grown for two weeks in control medium or in the presence of IGF or RA were processed and stained with anti-cytokeratin antibody as described above. Tubulocystic structures were counted and lumen diameters measured and grouped (large>200 μm, medium (Med)>40 μm, small<[…], closed and multilayered lumens). The results, the mean values (±SD) of samples obtained in two different experiments performed in duplicate, were recorded as percentages of lumens in each group from total number of lumens in each sample.

[4] = test system: differentiating hES cells (EB day 8); test: RT-PCR gene expression analysis of hES cell constructs on PLLA/PLGA scaffolds; settings: scaffold constructs, two weeks
Procedure: as §1
Total RNA was isolated by an RNEasy Mini Kit (Qiagen, Chatsworth, Calif.). […] For some gels including RNA amplified using a GADPH primer, semi-quantitative analysis was performed by measuring the mean pixel intensities of each band and normalizing the measured intensity to the mean pixel intensity of the GADPH band.

[5] = test system: hEBs (day 8); test: Staining of hEBs incubated with growth factors; settings: EBs conditioned with growth factor
Procedure: FIG. 4 includes light micrographs of 5-μm-thick sections taken from hEBs (day 8), incubated for additional 2 weeks with control medium (CON) or medium supplemented with retinoic acid (RA), or insulin-like growth factor (IGF), and stained with antibodies against human cytokeratin, α-feto-protein, and nestin (scale bars=200 μm.)
hES cells (H9 clone) were grown on mouse embryonic fibroblasts (Cell Essential, Boston, Mass.) in KnockOut Medium (Gibco-BRL, Gaithersburg, Md.), a modified version of Dulbeco's modified Eagle's medium optimized for ES cells, as described^5. To induce formation of EBs, hES cell colonies were dissociated with 1 mg/ml collagenase type IV and suspended in differentiation media without LIF and bFGF in Petri dishes^5.
as §3

In the case of “IGF: insulin growth factor IGF-I, 10 ng/mL (R&D Systems)”, the “Safranin-O staining for glycosaminoglycans (cartilage extracellular matrix)” value [1] is reported as “did not induce formation of Safranin O-positive matrix”, the “alpha feto protein (AFP) and albumin staining” value [1] is reported as “high levels of AFP and albumin in more defined areas” and the AFP expression/staining ([2]; two weeks) is reported as “some AFP staining could be observed”. For the same molecule, the “epithelial-lined tubular or cystic structures (histology)” value ([2]; two weeks) was “occasional epithelial-lined tubular or cystic structures”, the “shape of cell-matrigel structure” value [2] was “larger and less condensed” and the “percentage of lumens >40 μm of total number of lumens (tubulocystic structures)” value [3] was 84%±6. The “percentage of lumens >200 μm of total number of lumens (tubulocystic structures)” value [3] was 10%±3.

For activin-A, the “Safranin-O staining for glycosaminoglycans (cartilage extracellular matrix)” value [1] was “did not induce formation of Safranin O-positive matrix”, the “alpha feto protein (AFP) and albumin staining” value [1] was “high levels of alpha feto protein (AFP) and albumin throughout the sample” and the AFP expression/staining ([2]; two weeks) was “No AFP expression was observed”. For the same molecule, the cellular viability ([2]; two weeks) was “least cellular viability”, the “epithelial-lined tubular or cystic structures (histology)” value ([2]; two weeks) was “did not contain any such structures” and the “shape of cell-matrigel structure” value [2] was “small, condensed spheres”. The “expression of pancreatic gene PDX-1” value ([4]; versus other growth factors) was “higher levels”.

In the case of “TGF-β: transforming growth factor beta, TGF-β1, 2 ng/mL (R&D Systems)”, the “Safranin-O staining for glycosaminoglycans (cartilage extracellular matrix)” value [1] is reported as “high levels of Safranin-O staining”, the “collagen formation (trichrome staining)” value [1] is reported as “induced mature collagen formation” and the “Safranin-O staining of cartilage-derived GAG” value ([2]; two weeks) is reported as “No Safanin-O staining”. For the same molecule, the “epithelial-lined tubular or cystic structures (histology)” value ([2]; two weeks) was “did not contain any such structures”, the “cartilage matrix protein (CMP) expression” value ([4]; compared to the other samples) was “higher levels” and the safranin-O staining [5] was “no safranin-O staining was observed”.

`CC1=C(/C=C/C(C)=C/C=C/C(C)=C/C(=O)O)C(C)(C)CCC1` [RA, retinoic acid, reference compound] was tested, and the “increase in total percentage of cytokeratin-positive areas within the tissue” value ([1]; versus control medium, P<0.01) was about 4 fold and the “percentage of lumens >40 μm of total number of lumens (tubulocystic structures)” value [3] was 25%±12.
